Here are results for six molecules from patent US20240368123A1, “AROMATIC RING-CONTAINING BIOLOGICAL ANTAGONIST, AND PREPARATION METHOD THEREFOR AND USE THEREOF” (SHANGHAI HANSOH BIOMEDICAL CO., LTD., priority 2021, published 2024).

Data set [1] is described as follows: Liver microsomal metabolism stability test, rat. It is filed as in vitro ADME. As to conditions: for half-life at 1 μM: rat liver microsomes 0.5 mg/mL, compound 1 μM, NADPH/UDPGA; for Remaining rate: rat liver microsomes, 60 min. Here is the method: (§1) The purpose of this experiment was to detect the stability of the example compounds in liver microsomes of rats, dogs and humans.
(§2) • Formulation of working solution of compounds: compound stock solution was added to phosphate buffer to a final concentration of 20 μM.
(§3) Dilution was performed with 100 mM phosphate buffer to a final concentration of 0.625 mg/mL.
(§4) NADPH (reduced nicotinamide adenine dinucleotide phosphate) and UDPGA (uridine diphosphate glucuronic acid) were weighed, 100 mM phosphate buffer was added, and the final concentration was 20 mM.
(§5) 1 mg of Alamethicin was weighed, and 200 μL of DMSO was added to formulate a 5 mg/mL solution. Then dilution was performed with phosphate buffer to a final concentration of 50 μg/mL.
(§6) Stop solution: the stop solution contains 100 ng/mL labetalol hydrochloride and 400 ng/mL tolbutamide and cold acetonitrile as internal standard.
(§7) 400 μL of formulated liver microsomes, 25 μL of compound working solution and 25 μL of Alamethicin were added in sequence to the 96-well plate, and pre-incubated at 37° C. for 10 min. Then 50 μL of formulated NADPH/UDPGA was added to start the reaction and the mixture was incubated at 37° C. The total volume of the reaction system was 500 μL. The final contents of each component are as follows:
(§8) • Instrument: Shimadzu LC-30 AD; • Chromatographic column: XBridge® C18 (50*4.6 mm, 5 μm particle size); • Mobile phase: A: 0.1% formic acid solution, B: methanol Wash gradient: 0.2-1.6 min 5% A to 95% A, 3.0-3.1 min 95% A to 5% A Run time: 4.0 min.
(§9) • Instrument: API5500 liquid chromatography mass spectrometer, AB Sciex; • Ion source: electrospray ionization source (ESI); • Drying gas: N2, temperature 500° C.; • Electrospray voltage: 5000 V; • Detection mode: positive ion detection; • Scanning mode: reaction monitoring (MRM) mode.

A short description of data set [2]: Liver microsomal metabolism stability test, human. The class given is in vitro ADME. As to conditions: for half-life at 1 μM: human liver microsomes 0.5 mg/mL, compound 1 μM, NADPH/UDPGA; for Remaining rate: human liver microsomes, 60 min. Here is the method:
as §1, §2, §3, §4, §5, §6, §7, §8, §9

The target in data set [3] is T1, ETA receptors (Homo sapiens, UniProt P25101).
T1 construct: host or cells: HEK293
T1 sequence (P25101 21-427): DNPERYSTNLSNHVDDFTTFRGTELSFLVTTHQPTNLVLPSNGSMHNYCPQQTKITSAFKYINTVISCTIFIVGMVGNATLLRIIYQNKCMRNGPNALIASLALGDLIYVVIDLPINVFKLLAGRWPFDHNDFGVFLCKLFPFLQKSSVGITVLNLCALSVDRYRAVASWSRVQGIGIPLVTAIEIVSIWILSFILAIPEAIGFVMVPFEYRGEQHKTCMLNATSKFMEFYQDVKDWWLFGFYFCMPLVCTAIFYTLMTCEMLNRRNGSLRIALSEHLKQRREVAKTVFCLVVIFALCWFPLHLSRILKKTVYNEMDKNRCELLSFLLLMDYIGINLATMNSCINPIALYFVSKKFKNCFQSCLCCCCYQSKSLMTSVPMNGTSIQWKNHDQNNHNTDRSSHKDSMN
The data set is described as follows: Effect on calcium current in cells stably expressing ETA receptors (FLIPR, antagonist mode). The class given is cell-based. The note with it: HEK293-ETA cells, Fluo-8 AM, FLIPR Tetra; read-out: IC50 values of compounds on calcium current in cells stably expressing ETA receptors. An excerpt: Test Example 2. Determination of the Effect of the Compounds of the Present Invention on Calcium Current in Cells Stably Expressing ETA Receptors
• Antagonistic effect of test compounds on HEK293-ETA cell activity.
• DMEM, high glucose (Gibco: 12100); • Fetal bovine serum (Biosera: FB-1058/500); • P/S (Biosera: XC-A4122); • 5× Matrigel (Corning: 354230); • HBSS (Sigma: H1387); • HEPES (Invitrogen: 15630080); • Fluo-8 AM (AAT Bioquest: 21080); • Probenecid (Sigma: P8761); • Pluronic F-127 (Sigma: P2443-250G); • Endothelin 1 (MCE: HY—P0202); • Zibotentan (MCE: HY-10088); • 1000× Fluo-8 AM (2 mM): Fluo-8 AM was dissolved in DMSO, the mixture was shaken for 1-2 min, sub-packaged and stored at −20° C.; • Complete culture medium: DMEM+10% FBS+1×P/S; • Cell seeding medium: DMEM+10% FBS+1×PS; • Experimental buffer 1: 1×HBSS+20 mM HEPES+1 mM Probenecid+0.025% Pluronic F-127; • Experimental buffer 2: 1×HBSS+20 mM HEPES+0.075% Pluronic F-127; • 1× Matrigel: 5× Matrigel was diluted with DMEM; • Cell line: HDB HEK293-ETA.
• 1) HEK293-ETA cell line was cultured in complete culture medium at 37° C., 5% CO2 to 70%-90% confluence. • 2) the 384-well cell plate was coated with 1× Matrigel with 5 μL/well at room temperature for 10 to 30 min. • 3) the cells were digested and resuspended in cell seeding medium, inoculation was performed at 8,000 cells/well/20 μL in a 384-well cell culture plate, and the cells were cultured at 37° C., 5% CO2 for 24 h. • 4) the cell culture plate was taken out of the CO2 incubator and equilibrated at room temperature for 10 min. • 5) 1000× Fluo-8 AM was taken and diluted to 1× Fluo-8 AM with experimental buffer 1 that has been equilibrated to room temperature, with a concentration of 2 μM. • 6) the culture medium was removed from the cell culture plate, 20 μL of 1× Fluo-8 AM was added to each well, the mixture was centrifuged at 300 rpm for 60 seconds at room temperature, and incubated at room temperature in the dark for 1 h. • 7) positive control compound and test compound working solution (3×) were formulated: • (1) instrument Bravo was used to dilute the compound to 11 concentration points on the 384-well Echo compound plate (LABCYTE: LP-0200); • (2) instrument ECHO was used to transfer 90 nL of compound per well (compound storage concentration, such as the highest concentration point 10 mM) to the 384-well compound plate (PE: 6008590); • (3) Multidrop Combi was used to add 30 μL of experimental buffer 2 to the 384-well compound plate (PE: 6008590), the positive control compound and test compound were diluted to 30 μM (3×), and placed at room temperature until use. • 8) FLIPR Tetra was used to add 10 μL of diluted 3× compound into the experimental well of the corresponding 384-well cell plate, the compound and cells were incubated for 10 min at room temperature, then 10 μL of diluted 4× agonist was added, and the data was read and collected at the same time.
FLIPR Tetra was used to read and collect the fluorescence signal value (RFU). The maximum RFU value was used to calculate the percent activation data based on the readings of the Low control (DMSO control) and High control (100 nM positive compound) experimental groups {% activation rate=(RFUsample−RFUlow control)/(RFUhigh control−RFUlow control)×100}. The concentration of the test compound was 11 concentrations after diluting the reaction system 3 times, ranging from 10 μM to 0.17 nM.

Structures are written as SMILES.

`CCCCC1=NC2(CCCC2)C(=O)N1Cc1ccc(-c2ccccc2S(=O)(=O)Nc2noc(C)c2Br)c(COCC)c1` [Example 46, 2-[4-[(2-butyl-4-oxo-1,3-diazaspiro[4.4]non-1-en-3-yl)methyl]-2-(ethoxymethyl)phenyl]-N-(4-bromo-5-methyl-isoxazol-3-yl)benzsulfamide]: in data set [1], the half-life at 1 μM worked out at 24.3 min and the Remaining rate was 17.3%. Moreover, in data set [2], the half-life at 1 μM stood at 28.9 min and the Remaining rate worked out at 23.8%.

As to `[2H]C([2H])(OCC)c1cc(CN2C(=O)C3(CCCC3)N=C2CCCC)ccc1-c1ccccc1S(=O)(=O)Nc1noc(C)c1Cl` [Example 49, 4′-((2-butyl-4-oxo-1,3-diazospiro[4.4]non-1-en-3-yl)methyl)-N-(4-chloro-5-methylisoxazol-3-yl)-2′-(ethoxydeuteriummethyl)-[1,1′-biphenyl]-2-sulfonamide], the IC50 in data set [3] came to 12.9 nM. For the same molecule, in data set [1], the half-life at 1 μM is 24 min and the Remaining rate came to 17.1%. In data set [2], this molecule showed a half-life at 1 μM of 26.2 min and a Remaining rate of 30.7%.

Take `CCCCC1=NC2(CC3CC3C2)C(=O)N1Cc1ccc(-c2ccccc2S(=O)(=O)Nc2noc(C)c2Cl)c(COCC)c1` (stereo not shown) [Example 65, 4′-((2′-butyl-5′-oxaspiro[bicyclo[3.1.0]hexane-3,4′-imidazole]-1′(5′H)-yl)methyl)-N-(4-chloro-5-methylisoxazol-3-yl)-2′-(ethoxymethyl)-[1,1′-biphenyl]-2-sulfonamide]: the IC50 in data set [3] is 7.2 nM.

Consider `CCCCC1=NC2(CCCCC2)C(=O)N1Cc1ccc(-c2ccccc2S(=O)(=O)Nc2noc(C)c2Cl)c(COCC)c1` [Example 68, 4′-((2-2-4-4-oxo-1,3-diazaspiro[4.5]dec-1-en-3-yl)methyl)-N-(4-chloro-5-methylisoxazol-3-yl)-2′-(ethoxymethyl)-[1,1′-biphenyl]-2-sulfonamide], for which the IC50 in data set [3] stood at 18.7 nM.

`CCCCC1=NC2(CCCC2)C(=O)N1Cc1ccc(-c2ccccc2S(=O)(=O)Nc2noc(C)c2Cl)c(COCC(F)(F)F)c1` [Example 86]: in data set [3], the IC50 stood at 13.9 nM.

Turning to `CCCCC1=NC2(CC3CC3C2)C(=O)N1Cc1ccc(-c2ccccc2S(=O)(=O)Nc2noc(C)c2C)c(COCC)c1` (stereo not shown) [Example 87, 4′-((2′-butyl-5′-oxaspiro[bicyclo[3.1.0]hexane-3,4′-imidazole]-1′(5′H)-yl)methyl)-N-(4,5-dimethylisoxazol-3-yl)-2′-(ethoxymethyl)-[1,1′-biphenyl]-2-sulfonamide], the IC50 in data set [3] was found to be 8.2 nM.

In general, half-life refers to the time in which the quantity being followed falls by half. The low end stands for rapid decline, the high end for slow decline. Usually IC50 stands for the concentration that gives 50% inhibition.
